Assay results reported in the supplement of paper PMC11061612.

Assays:
Carboplatin = compound: C1CC(C1)(C(=O)[O-])C(=O)[O-].N.N.[Pt+2] [Carboplatin]; conditions: max 10 µM
How it was run: (§1)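 Viability was measured with CellTiter-Glo 2.0 luminescence after 72 hours of dosing at a final DMSO of typically 0.2%, and scaled between blank-well and DMSO-well means. Beforehand, cancer cell lines sat 24 hours at 37°C and 5% CO2 in 1536-well plates in 7.5 μl DMEM/F12 or RPMI with 10% FBS. A non-linear mixed effects model fitted two-parameter logistic curves to the dose responses. The single-agent IC50 comes from these fits.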

AZD5363 = compound: C1CN(CCC1(C(=O)N[C@@H](CCO)C2=CC=C(C=C2)Cl)N)C3=NC=NC4=C3C=CN4 [AZD5363]; conditions: max 10 µM
How it was run: as §1

AZD1775 = compound: C=CCn1c(=O)c2cnc(Nc3ccc(N4CCN(C)CC4)cc3)nc2n1-c1cccc(C(C)(C)O)n1 [AZD1775]; conditions: max 3 µM
How it was run: as §1

Trametinib = compound: CC(=O)Nc1cccc(-n2c(=O)n(C3CC3)c(=O)c3c(Nc4ccc(I)cc4F)n(C)c(=O)c(C)c32)c1 [Trametinib]; conditions: max 1 µM
How it was run: as §1

Paclitaxel = compound: CC(=O)O[C@H]1C(=O)[C@@]2(C)[C@H]([C@H](OC(=O)c3ccccc3)[C@]3(O)C[C@H](OC(=O)[C@H](O)[C@@H](NC(=O)c4ccccc4)c4ccccc4)C(C)=C1C3(C)C)[C@]1(OC(C)=O)CO[C@@H]1C[C@@H]2O [Paclitaxel]; conditions: max 3 µM
How it was run: as §1

Palbociclib = compound: CC(=O)c1c(C)c2cnc(Nc3ccc(N4CCNCC4)cn3)nc2n(C2CCCC2)c1=O [Palbociclib]; conditions: max 10 µM
How it was run: as §1

AZD1390 = compound: CC(C)n1c(=O)n(C)c2cnc3cc(F)c(-c4ccc(OCCCN5CCCCC5)nc4)cc3c21 [AZD1390]; conditions: max 0.3 µM
How it was run: as §1

Venetoclax = compound: CC1(C)CCC(CN2CCN(c3ccc(C(=O)NS(=O)(=O)c4ccc(NCC5CCOCC5)c([N+](=O)[O-])c4)c(Oc4cnc5[nH]ccc5c4)c3)CC2)=C(c2ccc(Cl)cc2)C1 [Venetoclax]; conditions: max 1 µM
How it was run: as §1

Dasatinib = compound: CC1=C(C(=CC=C1)Cl)NC(=O)C2=CN=C(S2)NC3=CC(=NC(=N3)C)N4CCN(CC4)CCO [Dasatinib]; conditions: max 2 µM
How it was run: as §1

SG3199 = compound: CC1=CN2[C@@H](C1)C=NC3=CC(=C(C=C3C2=O)OC)OCCCCCOC4=C(C=C5C(=C4)N=C[C@@H]6CC(=CN6C5=O)C)OC [SG3199]; conditions: max 0.001 µM
How it was run: as §1

AZD2811 = compound: CCN(CCO)CCCOc1ccc2c(Nc3cc(CC(=O)Nc4cccc(F)c4)[nH]n3)ncnc2c1 [AZD2811]; conditions: max 1 µM
How it was run: as §1

SN-38 = compound: CCc1c2c(nc3ccc(O)cc13)-c1cc3c(c(=O)n1C2)COC(=O)[C@]3(O)CC [SN-38]; conditions: max 0.3 µM
How it was run: as §1

AZD0156 = compound: CN(C)CCCOc1ccc(-c2ccc3ncc4c(c3c2)n(C2CCOCC2)c(=O)n4C)cn1 [AZD0156]; conditions: max 3 µM
How it was run: as §1

AZD4320 = compound: CN(CC[C@H](CSC1=CC=CC=C1)NC2=C(C=C(C=C2)S(=O)(=O)NC(=O)C3=CC=C(C=C3)N4CCC(CC4)[C@H](C5=CC=CC=C5C6=CC=C(C=C6)Cl)O)S(=O)(=O)C(F)(F)F)CCO [AZD4320]; conditions: max 1 µM
How it was run: as §1

Alisertib = compound: COc1cc(Nc2ncc3c(n2)-c2ccc(Cl)cc2C(c2c(F)cccc2OC)=NC3)ccc1C(=O)O [Alisertib]; conditions: max 10 µM
How it was run: as §1

Etoposide = compound: COc1cc([C@@H]2c3cc4c(cc3[C@@H](O[C@@H]3O[C@@H]5CO[C@@H](C)O[C@H]5[C@H](O)[C@H]3O)[C@H]3COC(=O)[C@H]23)OCO4)cc(OC)c1O [Etoposide]; conditions: max 10 µM
How it was run: as §1

Gefitinib = compound: COc1cc2ncnc(Nc3ccc(F)c(Cl)c3)c2cc1OCCCN1CCOCC1 [Gefitinib]; conditions: max 10 µM
How it was run: as §1

Prexasertib = compound: COc1cccc(OCCCN)c1-c1cc(Nc2cnc(C#N)cn2)n[nH]1 [Prexasertib]; conditions: max 1 µM
How it was run: as §1

Doxorubicin = compound: COc1cccc2c1C(=O)c1c(O)c3c(c(O)c1C2=O)C[C@@](O)(C(=O)CO)C[C@@H]3O[C@H]1C[C@H](N)[C@H](O)[C@H](C)O1 [Doxorubicin]; conditions: max 1 µM
How it was run: as §1

AZD5153 = compound: COc1nnc2ccc(N3CCC(c4ccc(OCCN5CCN(C)C(=O)[C@H]5C)cc4)CC3)nn12 [AZD5153]; conditions: max 1 µM
How it was run: as §1

Lapatinib = compound: CS(=O)(=O)CCNCc1ccc(-c2ccc3ncnc(Nc4ccc(OCc5cccc(F)c5)c(Cl)c4)c3c2)o1 [Lapatinib]; conditions: max 10 µM
How it was run: as §1

AZD8186 = compound: C[C@@H](Nc1cc(F)cc(F)c1)c1cc(C(=O)N(C)C)cc2c(=O)cc(N3CCOCC3)oc12 [AZD8186]; conditions: max 10 µM
How it was run: as §1

Crizotinib = compound: C[C@@H](Oc1cc(-c2cnn(C3CCNCC3)c2)cnc1N)c1c(Cl)ccc(F)c1Cl [Crizotinib]; conditions: max 10 µM
How it was run: as §1

Savolitinib = compound: C[C@@H](c1ccc2nccn2c1)n1nnc2ncc(-c3cnn(C)c3)nc21 [Savolitinib]; conditions: max 1 µM
How it was run: as §1

AZD6738 = compound: C[C@@H]1COCCN1C2=NC(=NC(=C2)C3(CC3)[S@](=N)(=O)C)C4=C5C=CNC5=NC=C4 [AZD6738]; conditions: max 10 µM
How it was run: as §1

AZD5991 = compound: Cc1c2c(nn1C)CSCc1cc(n(C)n1)CSc1cc(c3ccccc3c1)OCCCc1c(C(=O)O)n(C)c3c-2c(Cl)ccc13 [AZD5991]; conditions: max 1 µM
How it was run: as §1

AZD7648 = compound: Cc1cc2ncnn2cc1Nc1ncc2c(n1)n(C1CCOCC1)c(=O)n2C [AZD7648]; conditions: max 10 µM
How it was run: as §1

Taselisib = compound: Cc1nc(-c2cn3c(n2)-c2ccc(-c4cnn(C(C)(C)C(N)=O)c4)cc2OCC3)n(C(C)C)n1 [Taselisib]; conditions: max 10 µM
How it was run: as §1

Selumetinib = compound: Cn1cnc2c(F)c(Nc3ccc(Br)cc3Cl)c(C(=O)NOCCO)cc21 [Selumetinib]; conditions: max 10 µM
How it was run: as §1

SRA737 = compound: N#Cc1cnc(Nc2cc(NC[C@H]3CNCCO3)c(C(F)(F)F)cn2)cn1 [SRA737]; conditions: max 10 µM
How it was run: as §1

MK-2206 = compound: NC1(c2ccc(-c3nc4ccn5c(=O)[nH]nc5c4cc3-c3ccccc3)cc2)CCC1 [MK-2206]; conditions: max 10 µM
How it was run: as §1

Gemcitabine = compound: Nc1ccn([C@@H]2O[C@H](CO)[C@@H](O)C2(F)F)c(=O)n1 [Gemcitabine]; conditions: max 0.3 µM
How it was run: as §1

[1] = compound: O=C(Nc1ccc2[nH]nc(-c3ccncc3)c2c1)[C@@H]1CCN(CC(=O)N2CCN(c3ccc(-c4ncccn4)cc3)CC2)C1; conditions: max 5 µM
How it was run: as §1

Olaparib = compound: O=C(c1cc(Cc2n[nH]c(=O)c3ccccc23)ccc1F)N1CCN(C(=O)C2CC2)CC1 [Olaparib]; conditions: max 10 µM
How it was run: as §1

5-Fluorouracil = compound: O=c1[nH]cc(F)c(=O)[nH]1 [5-Fluorouracil]; conditions: max 20 µM
How it was run: as §1

Row | Cell Line | IC50, cell viability 72 h (Carboplatin) | IC50, cell viability 72 h (AZD5363) | IC50, cell viability 72 h (AZD1775) | IC50, cell viability 72 h (Trametinib) | IC50, cell viability 72 h (Paclitaxel) | IC50, cell viability 72 h (Palbociclib) | IC50, cell viability 72 h (AZD1390) | IC50, cell viability 72 h (Venetoclax) | IC50, cell viability 72 h (Dasatinib) | IC50, cell viability 72 h (SG3199) | IC50, cell viability 72 h (AZD2811) | IC50, cell viability 72 h (SN-38) | IC50, cell viability 72 h (AZD0156) | IC50, cell viability 72 h (AZD4320) | IC50, cell viability 72 h (Alisertib) | IC50, cell viability 72 h (Etoposide) | IC50, cell viability 72 h (Gefitinib) | IC50, cell viability 72 h (Prexasertib) | IC50, cell viability 72 h (Doxorubicin) | IC50, cell viability 72 h (AZD5153) | IC50, cell viability 72 h (Lapatinib) | IC50, cell viability 72 h (AZD8186) | IC50, cell viability 72 h (Crizotinib) | IC50, cell viability 72 h (Savolitinib) | IC50, cell viability 72 h (AZD6738) | IC50, cell viability 72 h (AZD5991) | IC50, cell viability 72 h (AZD7648) | IC50, cell viability 72 h (Taselisib) | IC50, cell viability 72 h (Selumetinib) | IC50, cell viability 72 h (SRA737) | IC50, cell viability 72 h (MK-2206) | IC50, cell viability 72 h (Gemcitabine) | IC50, cell viability 72 h [1] | IC50, cell viability 72 h (Olaparib) | IC50, cell viability 72 h (5-Fluorouracil)
1 | DB (B-Cell Non-Hodgkin's Lymphoma) | > 10000 nM | > 10000 nM | 526 nM | > 1000 nM | 5.71 nM | 7680 nM | > 300 nM | 119 nM | > 2000 nM | > 1 nM | 537 nM | 4.52 nM | > 3000 nM | 143 nM | 3880 nM | 3690 nM | > 10000 nM | 210 nM | 251 nM | 210 nM | > 10000 nM | > 10000 nM | 7970 nM | > 1000 nM | > 10000 nM | 109 nM | > 10000 nM | > 10000 nM | > 10000 nM | > 10000 nM | > 10000 nM | 8.96 nM | > 5000 nM | > 10000 nM | > 20000 nM
2 | DOV13 (Ovarian Carcinoma) | > 10000 nM | > 10000 nM | 1110 nM | > 1000 nM | 31.7 nM | 2020 nM | > 300 nM | > 1000 nM | 165 nM | > 1 nM | 980 nM | 9.35 nM | > 3000 nM | 464 nM | 1930 nM | 2730 nM | > 10000 nM | 40.7 nM | 308 nM | 650 nM | > 10000 nM | > 10000 nM | 7020 nM | > 1000 nM | 2130 nM | > 1000 nM | > 10000 nM | 4650 nM | > 10000 nM | > 10000 nM | > 10000 nM | 11.8 nM | > 5000 nM | > 10000 nM | > 20000 nM
3 | DSH1 (Bladder Carcinoma) | > 10000 nM | > 10000 nM | 1920 nM | 615 nM | 146 nM | > 10000 nM | > 300 nM | > 1000 nM | > 2000 nM | > 1 nM | > 1000 nM | 26.8 nM | > 3000 nM | > 1000 nM | > 10000 nM | 7620 nM | 792 nM | 153 nM | 306 nM | 242 nM | 457 nM | > 10000 nM | > 10000 nM | > 1000 nM | 4620 nM | 914 nM | > 10000 nM | 2240 nM | > 10000 nM | > 10000 nM | > 10000 nM | 6.55 nM | 2060 nM | > 10000 nM | > 20000 nM
4 | ES7 (Ewing's Sarcoma) | > 10000 nM | > 10000 nM | 1070 nM | > 1000 nM | 3.3 nM | 3870 nM | > 300 nM | > 1000 nM | > 2000 nM | > 1 nM | 25.4 nM | 1.13 nM | > 3000 nM | 204 nM | 249 nM | 257 nM | > 10000 nM | 33 nM | 38.8 nM | 289 nM | > 10000 nM | 2000 nM | 3360 nM | > 1000 nM | 2440 nM | 861 nM | > 10000 nM | 3020 nM | > 10000 nM | 7440 nM | 7750 nM | 6.44 nM | > 5000 nM | 3820 nM | 12300 nM
5 | G-292-Clone-A141B1 (Osteosarcoma) | > 10000 nM | > 10000 nM | > 3000 nM | > 1000 nM | > 3000 nM | > 10000 nM | > 300 nM | > 1000 nM | > 2000 nM | > 1 nM | > 1000 nM | > 300 nM | > 3000 nM | > 1000 nM | > 10000 nM | > 10000 nM | > 10000 nM | > 1000 nM | > 1000 nM | > 1000 nM | > 10000 nM | > 10000 nM | > 10000 nM | > 1000 nM | > 10000 nM | > 1000 nM | > 10000 nM | 1160 nM | > 10000 nM | > 10000 nM | > 10000 nM | > 300 nM | > 5000 nM | > 10000 nM | > 20000 nM
